One assay has as its target T1, human TGR5 (h-TGR5) (Homo sapiens, UniProt Q8TDU6).
T1 construct: expressed in transfected cells
T1 sequence (Q8TDU6 1-330): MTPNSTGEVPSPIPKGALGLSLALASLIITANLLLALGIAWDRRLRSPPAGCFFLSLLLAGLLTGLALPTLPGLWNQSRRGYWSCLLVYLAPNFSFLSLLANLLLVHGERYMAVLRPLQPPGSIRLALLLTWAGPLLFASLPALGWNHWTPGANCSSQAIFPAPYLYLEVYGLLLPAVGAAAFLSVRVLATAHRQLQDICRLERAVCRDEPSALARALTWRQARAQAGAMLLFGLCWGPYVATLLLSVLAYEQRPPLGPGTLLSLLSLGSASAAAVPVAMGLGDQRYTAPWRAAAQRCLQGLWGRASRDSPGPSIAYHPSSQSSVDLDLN
Kind of assay: TGR5/CRE-Luciferiase Assay (HEK 293 hTGR5/CRE-Luc cells). To be noted: h-TGR5 CRE-Luc EC50, Table 1; read-out: CRE-Luc (EC50). It is filed as cell-based. Summed up:
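HEK293 cells stably carrying hTGR5 and a CRE-luciferase reporter were exposed to serially diluted compounds (diluted in DMEM with 5% DMSO) for 6 h. Cells were then lysed in luciferase buffer, luminescence was read, and EC50 values were derived from dose-response curves.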

For a further assay, the target named is T2, h-TGR5 (Homo sapiens, UniProt Q8TDU6).
T2 construct: expressed in transfected cells
T2 sequence (Q8TDU6 1-330): T1 sequence (Q8TDU6 1-330)
Description: TGR5 cAMP Assay using Cisbio cAMP Dynamic2 htrf kit (hTGR5CRE-luc HEK 293 cells). The conditions noted are these: h-TGR5 cAMP EC50, Table 1; read-out: cAMP (EC50). Format: cell-based. Summed up:
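[…], 4000 hTGR5CRE-luc HEK 293 cells per well, with 0.5 mM IBMX and d2-cAMP, were incubated 30 min at room temperature with compounds in 8-point half-log series, in quadruplicate.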

We go through 22 compounds from patent publication US8785488B2 (Exelixis Patent Company LLC, priority 2009, dated 2014).

A word on the EC50: it is the concentration at which the effect is half-maximal. Turning to `COc1ccc(C(C)(C)c2cnc(CSc3c(F)cccc3Cl)n2-c2ccc(F)cc2)cc1OC` [5-{1-[3,4-bis(methyloxy)phenyl]-1-methylethyl}-2-{[(2-chloro-6-fluorophenyl)thio]methyl}-1-(4-fluorophenyl)-1H-imidazole], the EC50 at human TGR5 (h-TGR5) and at h-TGR5 was below 100 nM each time.

Consider `CC(C)(c1ccc(Cl)c(Cl)c1)c1cnc(SCc2ccc(Cl)c(-c3nnn[nH]3)c2)n1-c1cccc(Cl)c1` [5-{2-chloro-5-[({1-(3-chlorophenyl)-5-[1-(3,4-dichlorophenyl)-1-methylethyl]-1H-imidazol-2-yl}thio)methyl]phenyl}-1H-tetrazole], for which the EC50 on human TGR5 (h-TGR5) and at h-TGR5 was 100 to 1000 nM in each case.

In the case of `COc1cc(-n2c(C(C)(C)c3ccc(Cl)c(Cl)c3)cnc2SCc2ccc(S(=O)(=O)NC(=O)NN3CCCC3)cc2Cl)ccc1F` [3-chloro-4-[({5-[1-(3,4-dichlorophenyl)-1-methylethyl]-1-[4-fluoro-3-(methyloxy)phenyl]-1H-imidazol-2-yl}thio)methyl]-N-[(pyrrolidin-1-ylamino)carbonyl]benzenesulfonamide], the EC50 at human TGR5 (h-TGR5) was 100 to 1000 nM; on h-TGR5, 1000 to 10000 nM.

On to `CC(C)(c1ccc(F)c(F)c1)c1cnc(SCc2ccc(S(N)(=O)=O)cc2Cl)n1-c1ccc(F)cc1` [3-chloro-4-[({5-[1-(3,4-difluorophenyl)-1-methylethyl]-1-(4-fluorophenyl)-1H-imidazol-2-yl}thio)methyl]benzenesulfonamide], for which the concentration giving a half-maximal response (EC50) at human TGR5 (h-TGR5) and at h-TGR5 was 100 to 1000 nM each time.

For the compound `COc1cc(C(C)(C)c2cnc(SCc3c(F)cc(C(=O)NC(CCCCNC(=N)N)C(=O)O)cc3Cl)n2-c2ccc(F)cc2)ccc1Cl` [N-6-[amino(imino)methyl]-N-2-{[3-chloro-4-({[5-{1-[4-chloro-3-(methyloxy)phenyl]-1-methylethyl}-1-(4-fluorophenyl)-1H-imidazol-2-yl]thio}methyl)-5-fluorophenyl]carbonyl}-L-lysine], the EC50 at human TGR5 (h-TGR5) and at h-TGR5 was below 100 nM each time.

`CC(C)(c1ccc(Cl)c(Cl)c1)c1cnc(SCC2CCN(c3nnn[nH]3)CC2)n1-c1ccc(F)c(Cl)c1` [4-[({1-(3-chloro-4-fluorophenyl)-5-[1-(3,4-dichlorophenyl)-1-methylethyl]-1H-imidazol-2-yl}thio)methyl]-1-(1H-tetrazol-5-yl)piperidine]: the EC50 is below 100 nM on human TGR5 (h-TGR5) and 100 to 1000 nM on h-TGR5.

Consider `COc1cc(C(C)(C)c2cnc(SCc3c(F)cc(OCc4nnn[nH]4)cc3F)n2-c2ccc(F)cc2)ccc1Cl` [5-({[4-({[5-{1-[4-chloro-3-(methyloxy)phenyl]-1-methylethyl}-1-(4-fluorophenyl)-1H-imidazol-2-yl]thio}methyl)-3,5-difluorophenyl]oxy}methyl)-1H-tetrazole], for which the EC50 on human TGR5 (h-TGR5) and on h-TGR5 was below 100 nM throughout.

In the case of `COc1cc(C(C)(C)c2cnc(SCc3c(F)cc(C(=O)NC4CCN(c5nnn[nH]5)CC4)cc3Cl)n2-c2ccc(F)cc2)ccc1Cl` [3-chloro-4-({[5-{1-[4-chloro-3-(methyloxy)phenyl]-1-methylethyl}-1-(4-fluorophenyl)-1H-imidazol-2-yl]thio}methyl)-5-fluoro-N-[1-(1H-tetrazol-5-yl)piperidin-4-yl]benzamide], the EC50 at human TGR5 (h-TGR5) and at h-TGR5 was below 100 nM in each case.

For the compound `CC(C)(c1ccc(Cl)c(Cl)c1)c1cnc(SCc2ccc(C(=O)NCC(=O)O)cc2F)n1-c1ccc(F)cc1` [N-({4-[({5-[1-(3,4-dichlorophenyl)-1-methylethyl]-1-(4-fluorophenyl)-1H-imidazol-2-yl}thio)methyl]-3-fluorophenyl}carbonyl)glycine], the EC50 at human TGR5 (h-TGR5) and at h-TGR5 was 100 to 1000 nM each time.

As for `CC(=O)COc1ccc(CSc2ncc(C(C)(C)c3ccc(Cl)c(Cl)c3)n2-c2ccc(F)cc2)cc1S(N)(=O)=O` [5-[({5-[1-(3,4-dichlorophenyl)-1-methylethyl]-1-(4-fluorophenyl)-1H-imidazol-2-yl}thio)methyl]-2-[(2-oxopropyl)oxy]benzenesulfonamide], the EC50 is below 100 nM on human TGR5 (h-TGR5) and 100 to 1000 nM on h-TGR5.

Regarding `CC(C)(c1ccc(Cl)c(Cl)c1)c1cnc(SCc2ccc(S(=O)(=O)O)cc2Cl)n1-c1ccc(F)cc1` [3-chloro-4-[({5-[1-(3,4-dichlorophenyl)-1-methylethyl]-1-(4-fluorophenyl)-1H-imidazol-2-yl}thio)methyl]benzenesulfonic acid], the EC50 at human TGR5 (h-TGR5) and on h-TGR5 was 100 to 1000 nM each time.

Take `COC[C@H]1CCCN1NC(=O)NS(=O)(=O)c1ccc(CSc2ncc(C(C)(C)c3ccc(Cl)c(OC)c3)n2-c2ccc(F)cc2)c(Cl)c1` [3-chloro-4-({[5-{1-[4-chloro-3-(methyloxy)phenyl]-1-methylethyl}-1-(4-fluorophenyl)-1H-imidazol-2-yl]thio}methyl)-N-[({(2R)-2-[(methyloxy)methyl]pyrrolidin-1-yl}amino)carbonyl]benzenesulfonamide]: the EC50 on human TGR5 (h-TGR5) and at h-TGR5 was 100 to 1000 nM throughout.

Take `CC(C)(c1ccc(Cl)c(Cl)c1)c1cnc(CCc2c(F)cc(C(=O)N[C@@H](CCCNC(=N)N)C(=O)O)cc2Cl)n1-c1ccc(F)cc1` [N-2-{[3-chloro-4-(2-{5-[1-(3,4-dichlorophenyl)-1-methylethyl]-1-(4-fluorophenyl)-1H-imidazol-2-yl}ethyl)-5-fluorophenyl]carbonyl}-L-arginine]: the EC50 at human TGR5 (h-TGR5) and on h-TGR5 was 100 to 1000 nM each time.

`CC(C)(c1ccc(Cl)c(Cl)c1)c1cnc(SCc2c(F)cccc2Cl)n1-c1ccc(F)cc1` [2-{[(2-chloro-6-fluorophenyl)methyl]thio}-5-[1-(3,4-dichlorophenyl)-1-methylethyl]-1-(4-fluorophenyl)-1H-imidazole]: the EC50 at human TGR5 (h-TGR5) is below 100 nM; at h-TGR5, 100 to 1000 nM.

Take `COc1cc(C(C)(C)c2cnc(SCc3c(F)cc(S(N)(=O)=O)cc3F)n2-c2ccc(F)cc2)ccc1Cl` [4-({[5-{1-[4-chloro-3-(methyloxy)phenyl]-1-methylethyl}-1-(4-fluorophenyl)-1H-imidazol-2-yl]thio}methyl)-3,5-difluorobenzenesulfonamide]: the EC50 on human TGR5 (h-TGR5) and on h-TGR5 was below 100 nM throughout.

Turning to `COc1cc(C(C)(C)c2cnc(SCc3c(F)cc(S(=O)(=O)NCCS(=O)(=O)O)cc3Cl)n2-c2ccc(F)cc2)ccc1Cl` [2-({[3-chloro-4-({[5-{1-[4-chloro-3-(methyloxy)phenyl]-1-methylethyl}-1-(4-fluorophenyl)-1H-imidazol-2-yl]thio}methyl)-5-fluorophenyl]sulfonyl}amino)ethanesulfonic acid], the EC50 at human TGR5 (h-TGR5) and on h-TGR5 was below 100 nM each time.

`COc1ccc(Cc2cnc(SCc3ccc(F)cc3Cl)n2-c2ccc(F)cc2)cc1OC` [5-{[3,4-bis(methyloxy)phenyl]methyl}-2-{[(2-chloro-4-fluorophenyl)methyl]thio}-1-(4-fluorophenyl)-1H-imidazole]: the EC50 at human TGR5 (h-TGR5) and at h-TGR5 was below 100 nM in each case.

Regarding `COc1cc(C(C)(C)c2cnc(SCc3ccc(S(=O)(=O)NC(=O)Nc4nccs4)cc3Cl)n2-c2ccc(F)cc2)ccc1Cl` [3-chloro-4-({[5-{1-[4-chloro-3-(methyloxy)phenyl]-1-methylethyl}-1-(4-fluorophenyl)-1H-imidazol-2-yl]thio}methyl)-N-[(1,3-thiazol-2-ylamino)carbonyl]benzenesulfonamide], the EC50 on human TGR5 (h-TGR5) and on h-TGR5 was 100 to 1000 nM throughout.

Consider `COc1cc(C(C)(C)c2cnc(SCc3c(F)cc(C(=O)NCCCC(NC(=N)N)C(=O)O)cc3Cl)n2-c2ccc(F)cc2)ccc1Cl` [N-2-[amino(imino)methyl]-N-5-{[3-chloro-4-({[5-{1-[4-chloro-3-(methyloxy)phenyl]-1-methylethyl}-1-(4-fluorophenyl)-1H-imidazol-2-yl]thio}methyl)-5-fluorophenyl]carbonyl}-L-ornithine], for which the EC50 on human TGR5 (h-TGR5) and at h-TGR5 was below 100 nM throughout.

With `COc1cc(-n2c(C(C)(C)c3ccc(Cl)c(Cl)c3)cnc2SCC2CCN(C(=O)NC(C)C)CC2)ccc1F` [4-[({5-[1-(3,4-dichlorophenyl)-1-methylethyl]-1-[4-fluoro-3-(methyloxy)phenyl]-1H-imidazol-2-yl}thio)methyl]-N-(1-methylethyl)piperidine-1-carboxamide], the EC50 at human TGR5 (h-TGR5) was below 100 nM; at h-TGR5 it was 100 to 1000 nM.

Take `COc1ccc(C(C)(C)c2cnc(SCc3cc(-c4nnn[nH]4)c(Cl)cc3Cl)n2-c2ccc(F)cc2)cc1Cl` [5-[2,4-dichloro-5-({[5-{1-[3-chloro-4-(methyloxy)phenyl]-1-methylethyl}-1-(4-fluorophenyl)-1H-imidazol-2-yl]thio}methyl)phenyl]-1H-tetrazole]: the EC50 was below 100 nM at human TGR5 (h-TGR5) and 100 to 1000 nM on h-TGR5.

Take `CC(C)(c1ccc(F)cc1)c1cnc(SCc2ccc(S(=O)(=O)NC(=O)NN3CCCC3)cc2Cl)n1-c1ccc(F)c(Cl)c1` [3-chloro-4-[({1-(3-chloro-4-fluorophenyl)-5-[1-(4-fluorophenyl)-1-methylethyl]-1H-imidazol-2-yl}thio)methyl]-N-[(pyrrolidin-1-ylamino)carbonyl]benzenesulfonamide]: the EC50 on human TGR5 (h-TGR5) was in the range of 100 to 1000 nM; at h-TGR5, 1000 to 10000 nM.
